Reference: patent publication US20080280994A1, “Ascophyllum Compositions and Methods” (OCEAN NUTRITION CANDA LTD., priority 2004, published 2008)

Legend:
STZ-diabetic mice = assay: Sucrose challenge in diabetic mice; format: in vivo
Method: Animal model. Mice were made diabetic as described above and were allotted to eight groups (10 animals per group) as follows: […] Treatment and Measurement. Test samples were prepared at appropriate concentrations so that the required doses were delivered in a volume of 0.2 mL/20 g body weight. Acarbose was also dissolved in 0.5% CMC ([…]) and given at a dose of 25 mg/kg BW. Ten minutes after gavaging of samples, blood was sampled from tail vein for glucose measurement (Time 0). The animals were then gavaged with sucrose (20% in water at a dose of 2 g/kg body weight). […] A group of non-diabetic mice were given an equivalent volume of saline (0.2 ml/20 g BW).

[1] = test system: STZ-diabetic mice (KunMing strain); assay: 4-week treatment study in streptozotocin-induced diabetic mice; format: in vivo
Method: Animal Model. […] Diabetes was induced in mice with a single injection of streptozotocin (STZ). After fasting for 12 hrs, male mice with body weight above 20 g were given STZ dissolved in sodium citrate buffer via tail vein at a dose of 110 mg/kg body weight. […] Diabetic animals were divided into 5 groups (10 mice per group). Of these, 3 groups were treated with test samples, one group was a control group, receiving vehicle alone, and one group received metformin, an oral anti-diabetic agent. A sixth group, consisting of non-diabetic mice, was also included for comparison. They were treated with vehicle alone. Mice were housed 5 to a cage with free access to food and water. Test Samples and Dose. A. nodosum samples tested were as follows: 1) crude extract, CE 2) polyphenolic fraction, PPF 3) polysaccharide fraction, PSF Samples were dissolved in carboxymethylcellulose (CMC; 0.5%). Test sample solutions were prepared every morning at a concentration of 20 mg/ml in distilled water and given via gavage at a volume of 0.2 mL/20 g BW to deliver a dose of 200 mg/kg body weight. The control groups were gavaged with distilled water (0.2 mL/20 g BW). […] Animals were treated daily for 4 weeks. Measurements.

[2] = sucrose challenge, acarbose-treated mice
[3] = STZ-diabetic mice, Day 28, dose 200 mg/kg, mean ± S.D.
[4] = STZ-diabetic mice, daily gavage, printed dose 200 mg/kg, mean ± S.D.

C[C@H]1O[C@H](O[C@H]2[C@H](O)[C@@H](O)[C@@H](O[C@H]3[C@H](O)[C@@H](O)C(O)O[C@@H]3CO)O[C@@H]2CO)[C@H](O)[C@@H](O)[C@@H]1N[C@H]1C=C(CO)[C@@H](O)[C@H](O)[C@H]1O (stereo partly drawn) [Acarbose, acarbose]
serum glucose level, 0 min (STZ-diabetic mice; sucrose challenge 2 g/kg, dose 25 mg/kg, 0 min): 15.64 ± 2.6 mmol/L
serum glucose level, 10 min (STZ-diabetic mice; sucrose challenge 2 g/kg, dose 25 mg/kg, 10 min): 21.71 ± 3.6 mmol/L
serum glucose level, 30 min (STZ-diabetic mice; sucrose challenge 2 g/kg, dose 25 mg/kg, 30 min): 24.67 ± 4.1 mmol/L
serum glucose level, 60 min (STZ-diabetic mice; sucrose challenge 2 g/kg, dose 25 mg/kg, 60 min): 19.80 ± 4.8 mmol/L
serum glucose level, 120 min (STZ-diabetic mice; sucrose challenge 2 g/kg, dose 25 mg/kg, 120 min): 14.29 ± 2.9 mmol/L
area-under-the-curve (AUC) for glucose (STZ-diabetic mice; [2]): 2340 units (mmol/L×120 min.)
reduction of glucose AUC versus STZ-mice (STZ-diabetic mice; [2]): 33%

CN(C)C(=N)N=C(N)N [Metformin, metformin]
serum glucose versus STZ-diabetic mice (in words) ([1]; 4-week treatment, P<0.05): significantly lower serum glucose at each of the time points
blood total antioxidant level (in words) ([1]; Day 28): significant increases in antioxidant activity
glycated Hb versus STZ-diabetic mice (in words) ([1]; Day 28): reduced
total cholesterol versus STZ-diabetic mice (in words) ([1]; Day 28): reduced
liver glycogen level (in words) ([1]; Day 28, STZ-diabetic mice): significantly increased liver glycogen level
AntIoxidant activity (U/ml serum) [1, 3]: 8.15 ± 1.8 U/ml serum
Glycated Hb [1, 3]: 5.22 ± 0.5 mmol/L
Liver glycogen (mg/g wet tissue) [1, 3]: 5.51 ± 0.8 mg/g wet tissue
Total Cholesterol [1, 3]: 1.93 ± 0.7 mmol/L
Blood glucose (mM) Day 7 [1, 4]: 13.04 ± 5.8 mM
Blood glucose (mM) Day 14 [1, 4]: 11.60 ± 4.1 mM
Blood glucose (mM) Day 21 [1, 4]: 12.38 ± 4.7 mM
Blood glucose (mM) Day 28 [1, 4]: 13.59 ± 7.7 mM
Blood glucose (mM) Day 0 ([1]; STZ-diabetic mice, start of treatment period, mean ± S.D.): 13.50 ± 2.5 mM
